Activity calls are given as the source filed them.
Tests used:
Genome polyprotein = Genome polyprotein (dengue virus type 2, UniProt P29990); experiment: Dengue-2 NS5 methyltransferase inhibitors, primary screen, biochemical, confirmation dose response (AID 588689); format: functional
[1] = target: Long-chain-fatty-acid--AMP ligase FadD28 (Mycobacterium tuberculosis, UniProt P9WQ59); experiment: Fluorescence polarization aasay to screen for inhibitors that compete for the binding of FadD28 to a bisubstrate Measured in Biochemical System Using Plate Reader - 2147-01_Inhibitor_Dose_CherryPick_Activity.; format: functional, Mycobacterium tuberculosis H37Rv
Long-chain-fatty-acid--AMP ligase FadD28, sequence (P9WQ59 whole entry): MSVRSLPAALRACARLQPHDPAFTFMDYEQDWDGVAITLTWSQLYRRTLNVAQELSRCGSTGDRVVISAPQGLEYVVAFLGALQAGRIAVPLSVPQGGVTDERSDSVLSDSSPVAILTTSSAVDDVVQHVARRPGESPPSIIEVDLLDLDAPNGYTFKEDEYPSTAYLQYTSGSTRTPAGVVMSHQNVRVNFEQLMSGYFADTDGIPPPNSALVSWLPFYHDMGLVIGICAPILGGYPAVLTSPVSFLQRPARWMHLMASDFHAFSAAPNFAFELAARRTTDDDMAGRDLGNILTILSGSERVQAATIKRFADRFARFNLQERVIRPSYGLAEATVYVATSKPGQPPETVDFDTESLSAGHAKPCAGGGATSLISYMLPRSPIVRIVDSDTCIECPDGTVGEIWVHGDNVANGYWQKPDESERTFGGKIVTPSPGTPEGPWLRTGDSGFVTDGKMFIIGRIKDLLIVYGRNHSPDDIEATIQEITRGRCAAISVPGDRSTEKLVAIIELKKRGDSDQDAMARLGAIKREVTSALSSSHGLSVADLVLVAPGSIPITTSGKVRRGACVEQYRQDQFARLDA

SUMO-activating enzyme [2] = target: T1, SUMO-activating enzyme (Homo sapiens, UniProt Q9UBT2); experiment: SUMOylation inhibitor hit validation, confirmation, SUMOylation inhibitor project, biochemical, AlphaScreen (AID 2018); format: functional
T1 sequence (Q9UBE0 whole entry): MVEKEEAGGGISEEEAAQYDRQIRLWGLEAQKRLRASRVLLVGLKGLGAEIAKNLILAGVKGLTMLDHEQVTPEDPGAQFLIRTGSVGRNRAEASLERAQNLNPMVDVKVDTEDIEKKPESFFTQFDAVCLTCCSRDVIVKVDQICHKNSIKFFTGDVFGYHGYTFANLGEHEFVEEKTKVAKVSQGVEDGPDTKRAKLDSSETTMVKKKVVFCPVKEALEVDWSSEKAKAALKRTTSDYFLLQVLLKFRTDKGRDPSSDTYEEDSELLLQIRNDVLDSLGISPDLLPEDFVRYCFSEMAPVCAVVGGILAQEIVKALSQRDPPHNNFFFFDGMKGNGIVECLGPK
T1 sequence (Q9UBT2 whole entry): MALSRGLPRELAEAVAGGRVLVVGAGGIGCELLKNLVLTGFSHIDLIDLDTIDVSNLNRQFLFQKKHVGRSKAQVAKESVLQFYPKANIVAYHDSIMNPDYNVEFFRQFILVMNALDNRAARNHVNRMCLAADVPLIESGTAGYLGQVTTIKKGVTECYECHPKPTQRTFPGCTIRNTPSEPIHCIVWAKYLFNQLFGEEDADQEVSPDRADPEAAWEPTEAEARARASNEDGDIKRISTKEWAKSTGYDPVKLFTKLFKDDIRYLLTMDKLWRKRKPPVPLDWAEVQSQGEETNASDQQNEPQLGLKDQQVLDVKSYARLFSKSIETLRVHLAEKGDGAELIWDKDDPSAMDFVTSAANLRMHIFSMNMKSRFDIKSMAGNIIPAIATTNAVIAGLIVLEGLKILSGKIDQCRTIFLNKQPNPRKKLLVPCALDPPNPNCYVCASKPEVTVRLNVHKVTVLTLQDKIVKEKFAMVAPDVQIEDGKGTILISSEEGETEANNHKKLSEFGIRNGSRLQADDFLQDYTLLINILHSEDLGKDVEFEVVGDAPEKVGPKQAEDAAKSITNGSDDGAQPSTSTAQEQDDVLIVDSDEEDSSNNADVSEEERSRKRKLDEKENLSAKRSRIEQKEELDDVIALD

SUMO-activating enzyme [3] = target: T1, SUMO-activating enzyme; experiment: inhibitors of in vitro SUMOylation cascade, primary screen, biochemical, HTRF, uHTS (AID 2006); format: protein-complex assay
[4] = target: T2, Calpain-2 catalytic subunit (Sus scrofa, UniProt P43367); experiment: pig calpain II inhibitor potency, dose response, biochemical, fluorogenic peptide substrate (AID 1420); format: functional
T2 sequence (P43367 whole entry): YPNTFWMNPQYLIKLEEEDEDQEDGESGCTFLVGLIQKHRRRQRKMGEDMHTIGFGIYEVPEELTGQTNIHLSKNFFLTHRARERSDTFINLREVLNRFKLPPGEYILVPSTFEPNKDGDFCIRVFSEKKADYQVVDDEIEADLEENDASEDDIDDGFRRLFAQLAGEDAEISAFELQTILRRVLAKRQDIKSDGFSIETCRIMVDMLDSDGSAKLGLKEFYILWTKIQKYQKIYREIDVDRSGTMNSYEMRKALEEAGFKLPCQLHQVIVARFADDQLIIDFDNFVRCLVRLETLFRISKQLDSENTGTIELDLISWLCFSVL

Melanocortin receptor 4 = Melanocortin receptor 4 (Homo sapiens, UniProt P32245); format: functional, cell-based;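 also: Cell-based assay with luminescence read-out, confirmatory dose-response testing for agonist activity of biased ligands at MC4R; human U2OS cells with tagged receptor and beta-arrestin; potency of agonists that increase receptor coupling to beta-arrestin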
Melanocortin receptor 4, sequence (P32245 whole entry, the tested form may be a part): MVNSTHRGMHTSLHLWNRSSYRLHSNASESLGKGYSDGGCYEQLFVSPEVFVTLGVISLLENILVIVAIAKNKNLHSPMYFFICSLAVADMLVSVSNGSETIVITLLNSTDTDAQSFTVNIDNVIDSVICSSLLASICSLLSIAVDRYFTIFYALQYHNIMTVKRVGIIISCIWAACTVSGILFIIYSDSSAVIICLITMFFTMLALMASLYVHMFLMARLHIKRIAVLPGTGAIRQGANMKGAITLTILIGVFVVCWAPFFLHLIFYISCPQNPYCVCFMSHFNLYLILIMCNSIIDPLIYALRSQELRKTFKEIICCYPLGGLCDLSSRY

[5] = target: Hepatocyte nuclear factor 4-alpha (Homo sapiens, UniProt P41235); format: functional, cell-based;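 also: biochemical luminescence-based dose-response counterscreen measuring inhibition of HNF4 dimerization, run alongside a screen for blockers of ABHD5–perilipin-5 interaction; split luciferase complementation of HNF4 fusion proteins in cell lysate measuring dimerization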
Hepatocyte nuclear factor 4-alpha, sequence (P41235 whole entry, the tested form may be a part): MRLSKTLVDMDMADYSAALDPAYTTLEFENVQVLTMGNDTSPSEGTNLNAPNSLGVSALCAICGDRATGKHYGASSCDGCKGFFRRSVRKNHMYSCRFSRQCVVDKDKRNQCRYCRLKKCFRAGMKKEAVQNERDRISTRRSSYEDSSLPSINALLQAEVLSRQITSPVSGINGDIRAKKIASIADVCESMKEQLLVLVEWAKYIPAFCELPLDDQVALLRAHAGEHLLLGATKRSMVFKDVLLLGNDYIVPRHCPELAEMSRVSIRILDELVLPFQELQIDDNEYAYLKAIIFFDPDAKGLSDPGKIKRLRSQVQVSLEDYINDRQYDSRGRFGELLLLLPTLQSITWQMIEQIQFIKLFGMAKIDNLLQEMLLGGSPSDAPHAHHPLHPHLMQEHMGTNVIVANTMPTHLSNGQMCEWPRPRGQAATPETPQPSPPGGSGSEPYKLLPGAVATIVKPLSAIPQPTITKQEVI

CHO-K1 = experiment: (§1) Counterscreen for antagonists of the orexin 1 receptor (OX1R; HCRTR1): Homogeneous time resolved fluorescence (HTRF)-based cell-based dose response assay to identify antagonists of the parental CHO-K1 cell line. [Related pubchem assays (depositor defined):AID434989, AID435008, AID463079, AID485270, AID492963, AID492964, AID492965, AID493232, AID504699, AID504701]; format: functional; details: Cricetulus griseus
Orexin receptor type 2 [6] = target: T3, Orexin receptor type 2 (Homo sapiens, UniProt O43614); experiment: Counterscreen assay for antagonists of the orexin 1 receptor (OX1R; HCRTR1): Homogeneous Time Resolved Fluorescence (HTRF)-based cell-based dose response assay for antagonists of the orexin 2 receptor (OX2R; HCRTR2), run by assay provider.; format: functional
T3 sequence (O43614 whole entry): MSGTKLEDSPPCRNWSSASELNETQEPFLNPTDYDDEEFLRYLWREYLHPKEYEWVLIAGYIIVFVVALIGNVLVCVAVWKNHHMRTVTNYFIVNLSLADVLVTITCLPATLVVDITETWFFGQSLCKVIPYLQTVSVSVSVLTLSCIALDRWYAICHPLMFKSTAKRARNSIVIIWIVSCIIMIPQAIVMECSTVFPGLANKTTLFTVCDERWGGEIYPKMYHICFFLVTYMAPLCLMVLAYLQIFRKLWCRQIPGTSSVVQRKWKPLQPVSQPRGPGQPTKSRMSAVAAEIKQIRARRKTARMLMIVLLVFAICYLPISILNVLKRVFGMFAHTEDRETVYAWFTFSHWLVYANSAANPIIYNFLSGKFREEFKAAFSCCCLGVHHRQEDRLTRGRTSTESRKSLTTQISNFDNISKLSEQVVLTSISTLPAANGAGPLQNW

[7] = as §1, with “Fluorescence-based” for “Homogeneous time resolved fluorescence (HTRF)-based”, “cell-based high throughput” for “cell-based”, “CHO” for “CHO-K1”; format: functional
Orexin receptor type 2 [8] = target: T3, Orexin receptor type 2; experiment: Counterscreen assay for antagonists of the orexin 1 receptor (OX1R; HCRTR1): Fluorescence-based cell-based dose response assay for antagonists of the orexin 2 receptor (OX2R; HCRTR2), run by assay provider.; format: functional
[9] = target: T4, Orexin/Hypocretin receptor type 1 (Homo sapiens, UniProt O43613); experiment: Homogeneous Time Resolved Fluorescence (HTRF)-based cell-based high throughput dose response assay for antagonists of the orexin 1 receptor (OX1R; HCRTR1). [Related pubchem assays (depositor defined):AID434989, AID435008, AID463079, AID485270, AID492963, AID492964, AID492965, AID493232, AID504717, AID504718]; format: functional
T4 sequence (O43613 whole entry): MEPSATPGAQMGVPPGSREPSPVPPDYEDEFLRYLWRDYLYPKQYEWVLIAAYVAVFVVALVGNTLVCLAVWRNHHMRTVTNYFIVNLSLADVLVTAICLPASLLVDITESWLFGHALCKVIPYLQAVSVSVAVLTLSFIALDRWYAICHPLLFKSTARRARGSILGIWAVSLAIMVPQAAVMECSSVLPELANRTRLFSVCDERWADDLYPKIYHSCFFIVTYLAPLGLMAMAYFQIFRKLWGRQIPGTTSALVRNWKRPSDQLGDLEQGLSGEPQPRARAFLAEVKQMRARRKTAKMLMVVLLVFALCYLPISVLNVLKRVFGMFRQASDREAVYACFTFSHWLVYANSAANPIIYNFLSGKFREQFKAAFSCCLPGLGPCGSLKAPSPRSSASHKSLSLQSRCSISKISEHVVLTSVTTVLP

[10] = target: T4, Orexin/Hypocretin receptor type 1; experiment: Fluorescence-based cell-based high throughput dose response assay for antagonists of the orexin 1 receptor (OX1R; HCRTR1). [Related pubchem assays (depositor defined):AID434989, AID435008, AID463079, AID485270, AID492963, AID492964, AID492965, AID493232, AID504717, AID504718]; format: functional
[11] = target: T5, Heat shock factor protein 1 (Mus musculus, UniProt P38532); experiment: HSF1 potentiators in luciferase reporter cells, confirmation, cell-based, NIH3T3, luminescence, dose retest (AID 435004); format: functional;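 also: stress induced by proteasome inhibitor MG132 added 30 min after compound; luciferase reporter driven by HSF1 response element in NIH3T3 cells; actives raise luminescence as potentiators of the MG132 stress response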
T5 sequence (P38532 whole entry): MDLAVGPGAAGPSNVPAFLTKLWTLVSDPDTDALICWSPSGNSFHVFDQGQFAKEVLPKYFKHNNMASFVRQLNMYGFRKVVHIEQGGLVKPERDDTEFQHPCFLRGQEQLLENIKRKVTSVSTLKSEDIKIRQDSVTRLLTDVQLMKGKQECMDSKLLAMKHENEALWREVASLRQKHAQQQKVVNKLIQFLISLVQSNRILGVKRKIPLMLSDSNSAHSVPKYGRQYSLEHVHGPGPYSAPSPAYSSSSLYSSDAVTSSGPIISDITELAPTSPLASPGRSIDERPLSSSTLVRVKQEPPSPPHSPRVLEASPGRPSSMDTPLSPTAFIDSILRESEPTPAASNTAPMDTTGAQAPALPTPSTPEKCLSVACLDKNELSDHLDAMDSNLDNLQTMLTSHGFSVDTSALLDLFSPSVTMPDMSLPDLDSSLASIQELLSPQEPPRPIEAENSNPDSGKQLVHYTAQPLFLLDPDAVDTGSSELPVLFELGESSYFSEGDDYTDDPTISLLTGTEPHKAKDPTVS

[12] = target: T6, Mitochondrial peptide methionine sulfoxide reductase (Bos taurus, UniProt P54149); experiment: Absorbance-based biochemical high throughput dose response assay for activators of Methionine sulfoxide reductase A (MsrA).; format: functional
T6 sequence (P54149 whole entry): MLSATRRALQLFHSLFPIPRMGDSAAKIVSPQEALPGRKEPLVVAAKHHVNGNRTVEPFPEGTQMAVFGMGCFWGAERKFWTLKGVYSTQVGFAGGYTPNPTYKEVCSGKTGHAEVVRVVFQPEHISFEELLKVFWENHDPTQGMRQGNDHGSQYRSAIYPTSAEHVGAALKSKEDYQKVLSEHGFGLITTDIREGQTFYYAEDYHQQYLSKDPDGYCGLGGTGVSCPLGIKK

[13] = target: T7, Sentrin-specific protease 8 (Homo sapiens, UniProt Q96LD8); format: functional
T7 sequence (Q96LD8 whole entry): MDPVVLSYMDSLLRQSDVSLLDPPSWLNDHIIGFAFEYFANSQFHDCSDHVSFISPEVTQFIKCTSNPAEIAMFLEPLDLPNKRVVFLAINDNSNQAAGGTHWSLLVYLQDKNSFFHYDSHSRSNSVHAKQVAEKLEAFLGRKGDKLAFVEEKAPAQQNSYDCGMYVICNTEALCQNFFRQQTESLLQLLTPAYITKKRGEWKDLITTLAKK

Caspase-3 = target: T8, Caspase-3 (Homo sapiens, UniProt P42574); experiment: Dose-response confirmation of uHTS inhibitor hits of Sentrin-Specific Protease 8 in a Caspase-3 Fluorescence assay.; format: functional
T8 sequence (P42574 whole entry): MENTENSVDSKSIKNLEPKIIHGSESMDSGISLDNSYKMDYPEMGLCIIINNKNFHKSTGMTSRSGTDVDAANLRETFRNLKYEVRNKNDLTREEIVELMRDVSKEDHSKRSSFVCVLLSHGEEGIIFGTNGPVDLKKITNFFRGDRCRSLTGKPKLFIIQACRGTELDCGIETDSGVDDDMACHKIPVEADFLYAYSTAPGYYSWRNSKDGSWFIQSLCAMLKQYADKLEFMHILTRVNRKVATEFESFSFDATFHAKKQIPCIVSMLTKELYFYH

[14] = target: T7, Sentrin-specific protease 8; format: functional; remark: listed apart in the source

Genome polyprotein, sequence (P29990 2492-3391 limits assumed): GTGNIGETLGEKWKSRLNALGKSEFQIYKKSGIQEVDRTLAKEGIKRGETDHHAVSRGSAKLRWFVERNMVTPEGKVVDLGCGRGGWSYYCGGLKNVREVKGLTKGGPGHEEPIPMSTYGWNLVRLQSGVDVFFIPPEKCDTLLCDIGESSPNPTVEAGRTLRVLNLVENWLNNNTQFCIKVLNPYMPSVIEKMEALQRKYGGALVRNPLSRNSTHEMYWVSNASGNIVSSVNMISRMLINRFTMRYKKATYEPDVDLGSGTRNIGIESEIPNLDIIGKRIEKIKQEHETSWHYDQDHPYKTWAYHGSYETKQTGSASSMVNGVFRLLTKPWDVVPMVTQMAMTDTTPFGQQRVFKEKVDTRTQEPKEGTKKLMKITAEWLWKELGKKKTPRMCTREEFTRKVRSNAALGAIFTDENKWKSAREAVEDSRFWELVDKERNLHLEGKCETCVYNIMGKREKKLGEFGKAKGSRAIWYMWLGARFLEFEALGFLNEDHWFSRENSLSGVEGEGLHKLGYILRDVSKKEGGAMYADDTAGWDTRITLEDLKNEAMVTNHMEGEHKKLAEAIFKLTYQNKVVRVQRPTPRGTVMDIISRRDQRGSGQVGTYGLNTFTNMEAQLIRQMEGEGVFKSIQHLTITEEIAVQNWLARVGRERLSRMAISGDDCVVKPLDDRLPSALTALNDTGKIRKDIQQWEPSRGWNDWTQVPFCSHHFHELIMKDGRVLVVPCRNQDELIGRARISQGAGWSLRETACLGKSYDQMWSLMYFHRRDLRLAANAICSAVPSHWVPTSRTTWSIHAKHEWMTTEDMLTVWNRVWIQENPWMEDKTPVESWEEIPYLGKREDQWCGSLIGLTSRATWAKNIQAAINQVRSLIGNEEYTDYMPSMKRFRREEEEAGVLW

What does the source list for CCC(C)(C)C1CCc2c(sc(NC(=O)c3ccccc3C(=O)O)c2C#N)C1 (stereo not given)?
IC50 (Genome polyprotein): 42.6 µM (active); AC50 [1]: 37.3 µM (active); IC50 (SUMO-activating enzyme [2]): 15.3 µM (active); IC50 (SUMO-activating enzyme [3]): 21.4 µM (active)

With COc1cc(NS(=O)(=O)c2ccc(NC(=S)NC(=O)c3sc4ccccc4c3Cl)cc2)ncn1 as the molecule, how does the IC50 [4] read?
The IC50 was 11.4 µM (not active).

What about the EC50 (Melanocortin receptor 4) of the same molecule?
Its EC50 is > 89.2 µM (inactive).

With O=C(Cn1c(=O)n(Cc2ccco2)c(=O)c2c3c(sc21)CCCC3)Nc1ccccc1 as the molecule, how does the IC50 [5] read?
Its IC50 is 22.2 µM (inactive).

With Cc1cc(Br)cc2c1NC(=O)C2(c1c(C)n(C)n(-c2ccccc2)c1=O)c1c(C)n(C)n(-c2ccccc2)c1=O as the molecule, how does the IC50 (CHO-K1) read?
The IC50 was > 66.2 µM (inactive).

And the IC50 (Orexin receptor type 2 [6])?
Its IC50 is 0.99 µM (active).

What about the IC50 [7] of the same molecule?
The IC50 was > 49.8 µM (inactive).

And the IC50 (Orexin receptor type 2 [8])?
Its IC50 is > 88.8 µM (inactive).

What about the IC50 [9] of the same molecule?
Its IC50 is 1.28 µM (active).

And the IC50 [10]?
The IC50 was 6.52 µM (active).

Which EC50 [11] does the source give for CC(=O)Cc1cc(O)c2ccccc2c1OC(=O)c1ccccc1 here?
The EC50 was > 260 µM (inactive).

What about the IC50 [5] of the same molecule?
The IC50 was 14.6 µM (inactive).

Which IC50 (CHO-K1) does the source give for Cc1nc2c(-c3ccccc3)c(C)nn2c(N)c1-c1ccccc1 here?
The IC50 was > 66.2 µM (inactive).

What about the IC50 (Orexin receptor type 2 [6]) of the same molecule?
The IC50 was > 50 µM (inactive).

And the IC50 [7]?
The IC50 was 49 µM (inactive).

And the IC50 (Orexin receptor type 2 [8])?
The IC50 was 24.9 µM (inactive).

What about the IC50 [9] of the same molecule?
Its IC50 is 5.34 µM (active).

What about the IC50 [10] of the same molecule?
Its IC50 is 13.3 µM (inactive).

For O=C1C(Cl)=C(NCc2ccco2)C(=O)c2ccccc21, which EC50 [12] is on record?
The EC50 was > 104 µM (inactive).

With COc1ccc(N2C(=O)[C@@H]3[C@H](C2=O)[C@H]2c4ccccc4C=CN2[C@@H]3C(C)=O)cc1 as the molecule, how does the IC50 [13] read?
Its IC50 is 543 nM (active).

What about the IC50 (Caspase-3) of the same molecule?
The IC50 was 3.03 µM (active).

What about the IC50 [14] of the same molecule?
The IC50 was 1.19 µM (active).
